PubChem BioAssay (NCI)
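Assay format: 96-well plates, 48-hour exposure. GI50: concentration for 50% inhibition of growth. Definition used: TGI = concentration required for complete inhibition of growth.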

Assays:
Assay in all cases: DTP human tumour cell line panel, 48 h
CCRF-CEM leukemia = tested on: CCRF-CEM leukemia
HCC-2998 colon = tested on: HCC-2998 colon
HCT-116 colon = tested on: HCT-116 colon
MALME-3M melanoma = tested on: MALME-3M melanoma
MDA-MB-435 = tested on: MDA-MB-435
MOLT-4 leukemia = tested on: MOLT-4 leukemia
SK-MEL-28 melanoma = tested on: SK-MEL-28 melanoma
SW-620 colon = tested on: SW-620 colon
TK-10 renal = tested on: TK-10 renal
CAKI-1 renal = tested on: CAKI-1 renal

| Compound | TGI (CCRF-CEM leukemia) [µM] | TGI (HCC-2998 colon) [µM] | TGI (HCT-116 colon) [µM] | TGI (MALME-3M melanoma) [µM] | TGI (MDA-MB-435) [µM] | TGI (MOLT-4 leukemia) [µM] | TGI (SK-MEL-28 melanoma) [µM] | TGI (SW-620 colon) [µM] | TGI (TK-10 renal) [µM] | TGI (CAKI-1 renal) [µM] | GI50 (CAKI-1 renal) [µM] | GI50 (CCRF-CEM leukemia) [µM] | GI50 (HCC-2998 colon) [µM] | GI50 (MDA-MB-435) [µM] | GI50 (MOLT-4 leukemia) [µM] | GI50 (SW-620 colon) [µM] |
| --- | --- | --- | --- | --- | --- | --- | --- | --- | --- | --- | --- | --- | --- | --- | --- | --- |
| c1ccc(CCN2CCc3[nH]c4ccccc4c3C2)cc1 | > 100 | 30.5 | 28.7 | 32.8 | 36 | 70.5 | 41.8 | 29.6 | 51.7 | – | – | – | – | – | – | – |
| CCOC(=O)C(NC(=O)N(C1=NCC(C)S1)C1CCCCC1)(OC)C(F)(F)F (stereo not drawn) | > 100 | > 100 | > 100 | > 100 | > 100 | > 100 | > 100 | > 100 | > 100 | > 100 | – | – | – | – | – | – |
| c1ccc(CCNCc2ccco2)nc1 | > 100 | > 100 | > 100 | > 100 | > 100 | > 100 | > 100 | > 100 | > 100 | > 100 | – | – | – | – | – | – |
| C=C(CCC(C)C1CCC2C3=C(C(=O)CC21C)C1(C)CCC(=O)[C@@H](C)C1CC3=O)C(C)C(=O)O (stereo partly drawn) | 42.2 | > 100 | > 100 | > 100 | > 100 | 74.9 | > 100 | > 100 | > 100 | 72.3 | – | – | – | – | – | – |
| Cc1ccncc1.F[B-](F)(F)F.[Pt+2].c1ccc(-c2cccc(-c3ccccn3)n2)nc1 | > 100 | 59.5 | > 100 | 20.1 | > 81.4 | 39.1 | > 100 | 42.6 | 28.5 | > 62.1 | – | – | – | – | – | – |
| O=C1CCC2(CCO1)OCCO2 | > 100 | > 100 | > 100 | > 100 | > 100 | > 100 | > 100 | > 100 | > 100 | > 100 | – | – | – | – | – | – |
| O=CC(O)C(O)C(O)C(O)C(=O)NCCCCCCCCCCCCNC(=O)C(O)C(O)C(O)C(O)C=O (stereo not drawn) | > 100 | > 100 | > 100 | > 100 | > 100 | > 100 | > 100 | > 100 | > 100 | – | – | – | – | – | – | – |
| C(=C\c1cccc(/C=C/c2ccccn2)n1)/c1ccccn1 | > 100 | > 100 | > 100 | 39.9 | > 100 | > 100 | > 100 | > 100 | > 100 | > 100 | – | – | – | – | – | – |
| CCc1c(Cc2cccc3ccccc23)n2c(nc1=O)SCC2OCCO (stereo not drawn) | 74 | > 100 | > 100 | > 100 | 38.4 | > 100 | > 100 | > 100 | > 100 | > 100 | – | – | – | – | – | – |
| CN1CCN(c2c(Cl)cc(Cl)c3[nH]c4ccccc4c(=O)c23)CC1 | > 36.2 | 19.4 | > 42.6 | 6.67 | 19.8 | 9.96 | 26.8 | 21.3 | 26.2 | 20.6 | – | – | – | – | – | – |
| Clc1ccc(N2N=C(c3cccc(Nc4ccncc4)c3)CC2c2ccc3c(c2)OCO3)cc1 (stereo not drawn) | 15.9 | 3.2 | – | – | 3.02 | 4.58 | – | 3.15 | – | 2.9 | 1.44 | 3.18 | 1.79 | 1.53 | 1.97 | 1.63 |
| CCCCc1cc2c(C)cc(=O)oc2c(O)c1O | 56.3 | 15.7 | 96.1 | 88.9 | > 100 | > 100 | > 100 | 62.2 | > 100 | 53.3 | – | – | – | – | – | – |
| O=C(CSCC(=O)N/N=C/c1cccs1)N/N=C/c1cccs1 | > 100 | > 100 | > 100 | > 100 | > 100 | > 100 | > 100 | > 100 | > 100 | > 100 | – | – | – | – | – | – |
| CC[N+](C)(CC)CCC(O)(c1ccccc1)c1ccccc1 | > 100 | > 100 | > 100 | > 100 | > 100 | > 100 | > 100 | > 100 | > 100 | – | – | – | – | – | – | – |
| CN(C)c1nc(N(C)C)nc(N(C)C23CC4CC(CC(C4)C2)C3)n1 | 66.6 | 85.3 | 58.8 | 95.7 | > 100 | – | > 100 | > 100 | – | > 100 | – | – | – | – | – | – |
| Cc1nc2c3c(ncn2n1)Oc1c(c(-c2ccccc2)nn1-c1ccccc1)C3c1ccc(Cl)cc1 (stereo not drawn) | – | > 100 | > 100 | > 100 | > 100 | > 100 | > 100 | > 100 | > 100 | > 100 | – | – | – | – | – | – |
| Cc1ccc(S(=O)(=O)NNC(=O)c2cc(C)ccc2NC(=O)C23CC4CC(CC(C4)C2)C3)cc1 | > 100 | > 100 | > 100 | 80.4 | > 100 | > 100 | – | > 100 | > 100 | > 100 | – | – | – | – | – | – |
| Nc1ncnc2c1ncn2C1CCC(COS(N)(=O)=O)C1 (stereo not drawn) | > 100 | > 100 | > 100 | > 100 | > 100 | > 100 | > 100 | > 100 | > 100 | > 100 | – | – | – | – | – | – |
| Cc1cc(=O)n2nc(SCc3ccccc3)sc2n1 | > 100 | > 100 | > 100 | > 100 | > 100 | > 100 | > 100 | > 100 | > 100 | – | – | – | – | – | – | – |
| CC(=O)O[C@@H]1C[C@@]23C[C@@]24CC[C@H](OC2OCC(O)C(O)C2O)C(C)(C)[C@@H]4CC=C3[C@]2(C)C[C@@H]3OC4(C[C@@H](C)[C@@H]3[C@@]12C)OC(O)[C@@]1(C)O[C@@H]41 (stereo partly drawn) | 63.5 | 40.5 | 49.7 | > 100 | > 100 | – | > 100 | > 100 | > 100 | > 100 | – | – | – | – | – | – |
| O=[N+]([O-])c1c(Br)cc(Br)c2c1Nc1c(ccc(Cl)c1Cl)S2 | 7.49 | 28.8 | 19.1 | 27.7 | 31.5 | 7.6 | 31.4 | 25.7 | 37.1 | 33.6 | – | – | – | – | – | – |
